Measurements taken from patent EP4763847A1 (Jiangsu Yahong Meditech Co., Ltd., priority 2023, dated 2025).

Legend:
[1] = system: HCT116 MTAP KO; test: Cell proliferation inhibition (CellTiter Glo), HCT116 MTAP KO cells; type: cell-based; details: cultured 6 days with compound
Procedure: (§1) Test Example 2: Test of cell proliferation inhibition activity of the compounds
(§2) HCT116-WT (ATCC, CCL-247) and HCT116 MTAP KO (Cobioer Nanjing, CBP75002) cells were seeded into white low-transparency 96-well sterile cell culture plates at a density of 250 cells per well, respectively. The culture medium was McCoy's 5A Medium + 10% FBS. The plates were incubated overnight at 37°C with 5% CO2. The cells were treated with compounds gradiently with an initial concentration of 10000 nM, 4-fold dilution, and 8 concentration points. The last two columns were control wells with only DMSO added. The treated cells were continued to be cultured for 6 days. On the seventh day, 50 µL of CellTiter Glo® reagent was added to each well. After reacting on a shaker at room temperature for 10 minutes, the chemiluminescence signal in the plate was detected using the chemiluminescence detection method on a BIOTEK H1 multi-mode plate reader. […] Table 2: IC50 values of compounds for HCT116 MTAP KO/WT cell growth inhibition

[2] = system: HCT116-WT; test: Cell proliferation inhibition (CellTiter Glo), HCT116-WT cells; type: cell-based; details: cultured 6 days with compound
Procedure: as §1, §2

[3] = target: PRMT5-MTA (Homo sapiens, UniProt O14744); test: biochemical; details: IC50 (nM), PRMT5+MTA enzyme activity inhibition; PRMT5/MET50 protein 1 nM, 5'-deoxy-5'-adenosine 1 µM, SAM 2.5 µM, Histone H4 substrate 5 nM
Chain of PRMT5-MTA (O14744 whole entry): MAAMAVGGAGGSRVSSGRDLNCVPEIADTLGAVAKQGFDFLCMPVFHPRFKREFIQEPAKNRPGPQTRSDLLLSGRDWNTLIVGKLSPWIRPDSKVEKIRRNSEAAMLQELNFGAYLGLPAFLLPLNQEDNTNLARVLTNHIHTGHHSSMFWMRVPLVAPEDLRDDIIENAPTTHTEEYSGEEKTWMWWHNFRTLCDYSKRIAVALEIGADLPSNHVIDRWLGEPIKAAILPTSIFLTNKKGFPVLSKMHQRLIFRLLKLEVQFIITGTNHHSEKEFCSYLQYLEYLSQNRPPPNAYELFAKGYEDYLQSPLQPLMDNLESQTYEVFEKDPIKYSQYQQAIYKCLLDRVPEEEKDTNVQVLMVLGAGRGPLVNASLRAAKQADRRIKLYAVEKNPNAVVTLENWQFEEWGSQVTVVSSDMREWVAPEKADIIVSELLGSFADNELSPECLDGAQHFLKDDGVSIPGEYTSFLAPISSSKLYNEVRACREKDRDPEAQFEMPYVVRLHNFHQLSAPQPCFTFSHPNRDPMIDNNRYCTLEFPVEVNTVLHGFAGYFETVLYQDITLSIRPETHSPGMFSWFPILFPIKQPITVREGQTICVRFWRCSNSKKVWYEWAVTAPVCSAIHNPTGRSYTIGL
Chain of PRMT5-MTA (Q9BQA1 whole entry partner): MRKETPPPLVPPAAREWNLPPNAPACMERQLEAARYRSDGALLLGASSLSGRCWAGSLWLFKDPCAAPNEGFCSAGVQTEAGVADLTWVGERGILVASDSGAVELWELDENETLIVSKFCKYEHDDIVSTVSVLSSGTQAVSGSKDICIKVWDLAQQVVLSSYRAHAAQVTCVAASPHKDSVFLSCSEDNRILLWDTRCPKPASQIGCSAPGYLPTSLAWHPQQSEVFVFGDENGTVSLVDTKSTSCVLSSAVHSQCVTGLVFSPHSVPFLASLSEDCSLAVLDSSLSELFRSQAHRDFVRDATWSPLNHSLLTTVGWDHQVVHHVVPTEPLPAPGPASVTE
Procedure: The enzymatic inhibition activity of the compounds against PRMT5-MTA was detected using the AlphaScreen method. A 1× methyltransferase assay buffer IV (Signalchem) was prepared as a dilution solution for each component of the enzymatic reaction. […] The test compounds were added to all wells except the control wells in a 3-fold dilution series of 10 concentration points starting from 1000 nM using a Tecan D300e. After centrifugation at 1000 rpm for 1 minute in a centrifuge, the plate was incubated at 23°C for 15 minutes. Histone H4 substrate at a final concentration of 5 nM was added to the plate at 4 µL per well. After centrifugation at 1000 rpm for 1 minute in a centrifuge, the plate was reacted in an incubator at 23°C for 45 minutes. Anti-Histone H4 (symmetric dimethyl R3) antibody (Abcam) was pre-incubated with 50 µg/mL AlphaScreen Protein A Acceptor beads (PerkinElmer) at room temperature for 10 minutes, and then added to the plate in a volume of 10 µL per well, followed by reaction at room temperature for 1 hour. 10 µL of 50 µg/mL AlphaScreen Streptavidin Donor beads (PerkinElmer) were added to each well, and reacted at room temperature for 1 hour. The signal values in the plate were detected using the Alpha method on an Envision multi-mode plate reader. The IC50 values of the compounds for PRMT5/MET50 enzyme activity inhibition were calculated in Xlfit 5.0 software.

| SMILES | IC50 ([1]; Homo sapiens, HCT-116, 144 h) | IC50 ([2]; 144 h) | IC50 [3] | IC50 [1] | IC50 [2] |
| --- | --- | --- | --- | --- | --- |
| CNC(N)=Nc1ccc(C(=O)N(Cc2ccc(C(F)(F)F)cn2)C(C)c2ncccc2F)cn1 (racemic) [Compound 58] | 34 nM | 971 nM | 0.4 nM | – | – |
| CN/C(N)=N\c1ccc(C(=O)N(Cc2ccc(C(F)(F)F)cn2)C(C)c2ncccc2F)cn1 (single isomer, unassigned) [Compound 65] | 30 nM | 569 nM | 5.4 nM | – | – |
| CN/C(N)=N\c1ccc(C(=O)N(Cc2ccc(C(F)(F)F)cn2)C(C)c2ncccc2F)cn1 (single isomer, unassigned) [Compound 66] | – | – | 7.5 nM | – | – |
| CNC(N)=Nc1ccc(C(=O)N(Cc2ccc(C(F)(F)F)cn2)C(C)c2ncccn2)cn1 (stereo not shown) [Compound 1] | 150 nM | 2250 nM | 1.7 nM | – | – |
| COCCNC(N)=Nc1ccc(C(=O)N(Cc2ccc(C(F)(F)F)cn2)C(C)c2ncccn2)cn1 (stereo not shown) [Compound 3] | – | – | 2.9 nM | – | – |
| CNC(N)=Nc1ccc(C(=O)N(Cc2ccc(C(F)(F)F)cn2)C(C)c2ncccn2)cc1 (stereo not shown) [Compound 4] | – | – | 1.6 nM | – | – |
| CC(c1ncccn1)N(Cc1ccc(C(F)(F)F)cn1)C(=O)c1ccc(N=C(N)N)nc1 (stereo not shown) [Compound 7] | 422 nM | 1520 nM | 2.1 nM | – | – |
| COC(=O)CNC(N)=Nc1ccc(C(=O)N(Cc2ccc(C(F)(F)F)cn2)C(C)c2ncccn2)cn1 (stereo not shown) [Compound 8] | – | – | 5.5 nM | – | – |
| CC(c1ncccn1)N(Cc1ccc(C(F)(F)F)cn1)C(=O)c1ccc(N=C(N)Nc2ccccc2)nc1 (stereo not shown) [Compound 9] | – | – | 7.9 nM | – | – |
| CC(c1ncccn1)N(Cc1ccc(C(F)(F)F)cn1)C(=O)c1ccc(N=C(N)NCCN(C)C)nc1 (stereo not shown) [Compound 10] | – | – | 1.3 nM | – | – |
| CC(c1ncccn1)N(Cc1ccc(C(F)(F)F)cn1)C(=O)c1ccc(N=C(N)NO)nc1 (stereo not shown) [Compound 12] | 55 nM | 210 nM | 3 nM | – | – |
| CCNC(N)=Nc1ccc(C(=O)N(Cc2ccc(C(F)(F)F)cn2)C(C)c2ncccn2)cn1 (stereo not shown) [Compound 14] | 707 nM | 3550 nM | 1.3 nM | – | – |
| CC(C)NC(N)=Nc1ccc(C(=O)N(Cc2ccc(C(F)(F)F)cn2)C(C)c2ncccn2)cn1 (stereo not shown) [Compound 15] | – | – | 2.3 nM | – | – |
| CC(c1ncccn1)N(Cc1ccc(C(F)(F)F)cn1)C(=O)c1ccc(N=C(N)NCC(=O)O)nc1 (stereo not shown) [Compound 18] | 868 nM | 2030 nM | – | – | – |
| CC(c1ncccn1)N(Cc1ccc(C(F)(F)F)cn1)C(=O)c1ccc(N=C(N)NCCO)nc1 (stereo not shown) [Compound 19] | – | – | 0.8 nM | – | – |
| CNC(=Nc1ccc(C(=O)N(Cc2ccc(C(F)(F)F)cn2)C(C)c2ncccn2)cn1)NC (stereo not shown) [Compound 21, 6-((bis(methyl-amino)methylene)amino)-N-(1-(pyrimidin-2-yl)ethyl)-N-((5-(trifluoromethyl)pyridin-2-yl)methyl)nicotinamide] | – | – | 4.7 nM | – | – |
| COC=C(N)Nc1ccc(C(=O)N(Cc2ccc(C(F)(F)F)cn2)C(C)c2ncccn2)cn1 (stereo not shown) [Compound 23] | – | – | 5.8 nM | – | – |
| CNC(N)=Nc1ccc(C(=O)N(Cc2ccc(C(F)(F)F)cn2)C(C)c2cccc(C)c2)cn1 (stereo not shown) [Compound 31, 6-((amino(methylamino)methylene)amino)-N-(1-(m-tolyl)ethyl)-N-((5-(trifluoromethyl)pyridin-2-yl)methyl)nicotinamide] | 302 nM | 3360 nM | 3.4 nM | – | – |
| CNC(N)=Nc1ccc(C(=O)N(Cc2ccc(C(F)(F)F)cn2)C(C)c2ccccc2)cn1 (stereo not shown) [Compound 32] | 114 nM | 1890 nM | 1.5 nM | – | – |
| CNC(N)=Nc1ccc(C(=O)N(Cc2ccc(C(F)(F)F)cn2)C(C)C2CC2)cn1 (stereo not shown) [Compound 33] | 279 nM | 4000 nM | 1 nM | – | – |
| CNC(N)=Nc1ccc(C(=O)N(Cc2ccc(C(F)(F)F)cn2)C(C)c2ccccn2)cn1 (stereo not shown) [Compound 34] | 182 nM | 3480 nM | 1.8 nM | – | – |
| CNC(N)=Nc1ccc(C(=O)N(Cc2ccc(C(F)(F)F)cn2)C2CCC2)cn1 [Compound 35] | – | – | 2 nM | – | – |

| SMILES | IC50 ([1]; Homo sapiens, HCT-116, 144 h) | IC50 ([2]; 144 h) | IC50 [3] | IC50 [1] | IC50 [2] |
| --- | --- | --- | --- | --- | --- |
| CNC(N)=Nc1ccc(C(=O)N(Cc2ccccc2)Cc2ccc(C(F)(F)F)cn2)cn1 [Compound 36] | 521 nM | 5360 nM | 3.6 nM | – | – |
| CNC(N)=Nc1ccc(C(=O)N(Cc2ccc(C(F)(F)F)cn2)C(C)c2ccc(F)cc2)cn1 (stereo not shown) [Compound 37] | 454 nM | 2700 nM | – | – | – |
| CNC(N)=Nc1ccc(C(=O)N(Cc2ccc(C(F)(F)F)cn2)C(C)c2ccncc2)cn1 (stereo not shown) [Compound 39] | – | – | 1.2 nM | – | – |
| CNC(N)=Nc1ccc(C(=O)N(Cc2ccc(C(F)(F)F)cn2)C(C)c2ccc(C)cc2)cn1 (stereo not shown) [Compound 40] | – | – | 1.9 nM | – | – |
| CNC(N)=Nc1ccc(C(=O)N(Cc2ccc(C(F)(F)F)cn2)C(C)c2ccccc2C)cn1 (stereo not shown) [Compound 41] | 931 nM | 3710 nM | 2.5 nM | – | – |
| CNC(N)=Nc1ccc(C(=O)N(Cc2ccc(C(F)(F)F)cn2)C(C)c2ccccc2F)cn1 (stereo not shown) [Compound 42] | 61 nM | 982 nM | 1.6 nM | – | – |
| CNC(N)=Nc1ccc(C(=O)N(Cc2ccc(C(F)(F)F)cn2)C(C)c2cccc3ccccc23)cn1 (stereo not shown) [Compound 43] | – | – | 1.6 nM | – | – |
| CNC(N)=Nc1ccc(C(=O)N(Cc2ccc(C(F)(F)F)cn2)C2CCCc3cccnc32)cn1 (stereo not shown) [Compound 44] | – | – | 2.6 nM | 17 nM | 493 nM |
| CNC(N)=Nc1ccc(C(=O)N(Cc2ccc(C(F)(F)F)cn2)c2cccc3cccnc23)cn1 [Compound 45, 6-((amino(methylamino)methylene)amino)-N-(quinolin-8-yl)-N-((5-(trifluoromethyl)pyridin-2-yl)methyl)nicotinamide] | 24 nM | 275 nM | 1 nM | – | – |
| CNC(N)=Nc1ccc(C(=O)N(C)C2COc3cc(C(F)(F)F)ccc32)cn1 (stereo not shown) [Compound 54, 6-((amino(methylamino)methylene)amino)-N-methyl-N-(6-(trifluoromethyl)-2,3-dihydrobenzofuran-3-yl)nicotinamide] | – | – | 2 nM | – | – |
| CNC(N)=Nc1ccc(C(=O)N(C)C2COc3cc(-c4ccncc4)ccc32)cn1 (stereo not shown) [Compound 55, 6-((amino(methylamino)methylene)amino)-N-methyl-N-(6-(pyridin-4-yl)-2,3-dihydrobenzofuran-3-yl)nicotinamide] | – | – | 5 nM | – | – |
| CNC(N)=Nc1ccc(C(=O)N2C[C@@H](C)CC[C@@H]2c2ccc(F)cc2)cn1 [Compound 57, 2-(5-((2R,5S)-2-(4-fluorophenyl)-5-methylpiperidine-1-carbonyl)pyridin-2-yl)-1-methyl guanidine] | – | – | 1.8 nM | – | – |
| CNC(N)=Nc1ccc(C(=O)N(Cc2ccc(C(F)(F)F)cn2)C2CCCc3cccnc32)cn1 (stereo not shown) [Compound 59] | 18 nM | 413 nM | – | – | – |
| CNC(N)=Nc1ccc(C(=O)N(Cc2ccc(-c3cncs3)cn2)[C@H](C)c2ccccc2F)cn1 [Compound 72] | 54 nM | 696 nM | – | – | – |
| CNC(N)=Nc1ccc(C(=O)N(Cc2ccc3sc(NC)nc3c2)[C@H](C)c2ccccc2F)cn1 [Compound 80] | – | – | 7.8 nM | – | – |
| CCC(c1ccccc1F)N(Cc1ccc(C(F)(F)F)cn1)C(=O)c1ccc(N=C(N)NC)nc1 (stereo not shown) [Compound 84] | 25 nM | 428 nM | – | – | – |
| CNC(N)=Nc1ccc(C(=O)N(Cc2cccnc2)[C@H](C)c2ccccc2F)cn1 [Compound 100] | – | – | 7.6 nM | – | – |
| CNC(N)=Nc1ccc(C(=O)N(CC2CCCCO2)C(C)c2ccccc2F)cn1 (stereo not shown) [Compound 103] | – | – | 4.2 nM | – | – |
| CN/C(N)=N\c1ccc(C(=O)N(Cc2ccc(C(F)(F)F)cn2)C(C)c2cccc3nccnc23)cn1 (stereo not shown) [Compound 120, (Z)-6-((amino(methylamino)methylene)amino)-N-(1-(quinoxalin-5-yl)ethyl)-N-((5-(trifluoromethyl)pyridin-2-yl)methyl)nicotinamide] | – | – | 1 nM | – | – |
| CN/C(N)=N\c1ccc(C(=O)N(Cc2ccc(C(F)(F)F)cn2)C2CCCc3nccnc32)cn1 (stereo not shown) [Compound 122, (Z)-6-((amino(methylamino)methylene)amino)-N-(5,6,7,8-tetrahydroquinoxalin-5-yl)-N -((5-(trifluoromethyl)pyridin-2-yl)methyl)nicotinamide] | 192 nM | 1930 nM | – | – | – |
| CNC(N)=Nc1ccc(C(=O)N(Cc2ccc(C(F)(F)F)cc2F)C(C)c2cccc3nccnc23)cn1 (stereo not shown) [compound 121] | – | – | 4.4 nM | – | – |
